Laboratory results taken from patent US12195490B2, “STRAD-binding agents and uses thereof” (The Regents of the University of California, priority 2020, dated 2025).

system: ACHN cell line; assay: drug screen of the SelleckChem kinase inhibitor library with and without 5 uM SU-329, Cell-Titer Glo after 5 days; type: cell-based; conditions: kinase inhibitor at 200 nM with and without 5 uM SU329; ACHN cell line; 5 days; Cell-Titer Glo

Row | Compound | log2fc
1 | CCn1c2ccccc2c2cc(Nc3ccnc(NCCCN4CCOCC4)n3)ccc21 [EHop-016] | 0.1156
2 | Cc1cc(NC(=O)c2cccc(NC(=O)/C=C/CN(C)C)c2)ccc1Nc1nccc(-c2cccnc2)n1 [JNK-IN-8] | 0.5696
3 | CC(C)(C)NS(=O)(=O)c1cncc(-c2cc(F)c3nc(N)nn3c2)c1 [CZC24832] | 0.2139
4 | CN1CCN(c2nc(C3=C(c4c[nH]c5ccccc45)C(=O)NC3=O)c3ccccc3n2)CC1 [Sotrastaurin] | 0.054
5 | CCc1cccc(CC)c1NC(=O)N1Cc2[nH]nc(NC(=O)c3ccc(N4CCN(C)CC4)cc3)c2C1 [PHA-680632] | −0.4048
6 | Cc1csc(-c2nnc(Nc3ccc(Oc4ncccc4-c4ccnc(N)n4)cc3)c3ccccc23)c1 [AMG-900] | 0.883
7 | COc1cc2nccc(Oc3ccc(NC(=O)C4(C(=O)Nc5ccc(F)cc5)CC4)cc3)c2cc1OC [Cabozantinib (XL184, BMS-907351)] | 0.001197
8 | Cc1nc(Nc2ncc(C(=O)Nc3c(C)cccc3Cl)s2)cc(N2CCN(CCO)CC2)n1 [Dasatinib, dasatinib, reference compound] | −0.196
9 | C#Cc1cccc(Nc2ncnc3cc(OC)c(OCCCCCCC(=O)NO)cc23)c1 [CUDC-101, reference compound] | 0.1269
10 | C=CC(=O)Nc1cccc(Oc2nc(Nc3ccc(N4CCN(C)CC4)cc3OC)ncc2Cl)c1 [WZ4003] | −0.1405
11 | 10058-F4 | 0.2472
12 | C=CCc1ccc(O)c(-c2ccc(O)c(CC=C)c2)c1 [Honokiol] | 0.09484
13 | COc1c(C)c(C(=O)c2ccc(N)c(C(=O)[O-])c2)n2ccccc12.[Na+] [SSR128129E] | 0.3473
14 | Cc1cc(Nc2nc(N[C@@H](C)c3ncc(F)cn3)ncc2Cl)[nH]n1 [AZD1480] | 0.4813
15 | COCCNCc1ccc(-c2cc3nccc(Oc4ccc(NC(=S)NC(=O)Cc5ccc(F)cc5)cc4F)c3s2)nc1 [MGCD-265] | 0.4311
16 | O=C1NC(=O)C(=Cc2ccc(-c3ccc(F)cc3)o2)S1 (stereo in doubt) [CAY10505] | 0.3828
17 | CC[C@@H]1C(=O)N(C)c2cnc(Nc3ccc(C(=O)NC4CCN(C)CC4)cc3OC)nc2N1C1CCCC1 [BI 2536] | 1.415
18 | Cc1c(CN2CCN(C(=O)[C@H](C)O)CC2)sc2c(N3CCOCC3)nc(-c3cnc(N)nc3)nc12 [Apitolisib (GDC-0980, RG7422)] | −0.658
19 | O=C(Nc1cccc(Nc2ncc(Br)c(NCCc3cnc[nH]3)n2)c1)N1CCCC1 [BX-912] | −0.4536
20 | Cc1cc2c(F)c(Oc3ncnn4cc(OC[C@@H](C)OC(=O)[C@H](C)N)c(C)c34)ccc2[nH]1 [Brivanib Alaninate (BMS-582664)] | 0.04321
21 | COc1ncc(-c2ccc3nccc(-c4ccnnc4)c3c2)cc1NS(=O)(=O)c1ccc(F)cc1F [Omipalisib (GSK2126458, GSK458)] | 0.5342
22 | O=C(Nc1ccc(OC(F)(F)F)cc1)c1sccc1NCc1ccnc2ccccc12 [OSI-930] | −0.2273
23 | COc1cc2c(Nc3ccc(NC(=O)c4ccccc4)cc3)ncnc2cc1OCCCN1CCOCC1 [ZM 447439] | 0.52
24 | O=c1[nH]c2ccc(Cl)cc2c(N[C@@H]2CN3CCC2CC3)c1-c1nc2ccccc2[nH]1 [CHIR-124] | 1.257
25 | CCc1cc(Nc2nccc(-c3c(-c4ccc(OC)c(C(=O)Nc5c(F)cccc5F)c4)nc4ccccn34)n2)c(OC)cc1N1CCC(N2CCN(S(C)(=O)=O)CC2)CC1 [GSK1904529A] | 0.6211

Row | Compound | log2fc
26 | FC(F)(F)c1ccc(/C=C/c2nc(COc3ccc(CCCCn4ccnn4)cc3)co2)cc1 [Mubritinib (TAK 165)] | 0.225
27 | C#Cc1cccc(Nc2ncnc3cc4c(cc23)OCCOCCOCCO4)c1 [Icotinib] | 0.1182
28 | CN(C)Cc1cccc(N/C(=C2\C(=O)Nc3cc(C(N)=O)ccc32)c2ccccc2)c1 [BIX 02188] | 0.2216
29 | CNc1nc(Nc2cn(C(C)(C)C#N)nc2C)ncc1C(F)(F)F [GNE-0877] | 0.3098
30 | c1cncc(CN2CCC(n3ncc4c(N5CCOCC5)nc(-c5ccc6[nH]ccc6c5)nc43)CC2)c1 [WAY-600] | −1.322
31 | N#Cc1ccc2[nH]c(O)c(-c3ccc(CN4CCOCC4)cn3)c2c1 [AZD1080] | 1.953
32 | O=C1NCCc2[nH]c(-c3ccncc3)cc21 [PHA-767491] | −0.9629
33 | COc1cc2c(c(OC)c1OC)-c1c(cc3c(c1OC)OCO3)CC(C)C(C)C2 (centres unmarked) [Schisandrin B (Sch B)] | 0.5674
34 | CCn1c(N)c(C(=O)NC)c(=O)c2ccc(C#C[C@@](C)(O)COC)nc21 [SAR131675] | 0.374
35 | COc1cc(CCc2cc(NC(=O)c3ccc(N4CC(C)NC(C)C4)cc3)n[nH]2)cc(OC)c1 (centres unmarked) [AZD4547] | 0.4725
36 | O=c1sn(-c2cccc3ccccc23)c(=O)n1Cc1ccccc1 [Tideglusib] | −0.007073
37 | COc1ccc2c(Oc3ccc(NC(=O)c4c(C)n(CC(C)(C)O)n(-c5ccccc5)c4=O)nc3)ccnc2c1 [AMG-458] | 0.0395
38 | Cc1cc2c(F)c(Oc3ncnn4cc(OC[C@@H](C)O)c(C)c34)ccc2[nH]1 [Brivanib (BMS-540215)] | 0.1194
39 | CN(C)Cc1cccc(N/C(=C2\C(=O)Nc3cc(C(=O)N(C)C)ccc32)c2ccccc2)c1 [BIX 02189] | −0.08248
40 | Cn1cc(C2=C(c3ccc(Cl)cc3Cl)C(=O)NC2=O)c2ccccc21 [SB216763] | 0.4708
41 | C[C@@H](NC(=O)c1ncnc(N)c1Cl)c1ncc(C(=O)Nc2cc(C(F)(F)F)c(Cl)cn2)s1 [MLN2480] | 0.5916
42 | Nc1nc(N)c2nc(-c3cccc(O)c3)c(-c3cccc(O)c3)nc2n1 [TG100-115] | 0.2334
43 | CCC[C@H](NC(=O)/C(C#N)=C/c1cccc(Br)n1)c1ccccc1 [Degrasyn (WP1130)] | −0.132
44 | C[C@@H](N)[C@H]1CC[C@H](C(=O)Nc2ccncc2)CC1.Cl.Cl [Y-27632 2HCl] | −0.01003
45 | CN1CCCN(C(=O)c2cccc(-c3ccc(/C=C4/C(=O)Nc5ccc(Cl)cc54)o3)c2)CC1.Cl [CX-6258 HCl] | −0.355
46 | CC(C)CC(=O)Nc1n[nH]c2c1CN(C(=O)C1CCN(C)CC1)C2(C)C [PHA-793887] | −0.1187
47 | CNC(=O)c1cccc(-c2ccc3c(N4CCOC[C@@H]4C)nc(N4CCOC[C@@H]4C)nc3n2)c1 [Vistusertib (AZD2014)] | −0.8127
48 | O=C1Nc2ccccc2/C1=C1/Nc2ccccc2C1=O [Indirubin] | −1.247
49 | COCC(=O)NC/C=C/c1ccc2ncnc(Nc3ccc(Oc4ccc(C)nc4)c(C)c3)c2c1 [CP-724714, reference compound] | 0.2836
50 | C=CC(=O)Nc1ccc2ncnc(Nc3cccc(Br)c3)c2c1 [PD168393] | 0.5991

Row | Compound | log2fc
51 | O=C(O)c1ccc(-c2c[nH]c3ncc(-c4ccccc4)cc23)cc1C1CCCC1 [GSK650394] | 0.3205
52 | C[C@@H](Oc1cc(-n2cnc3ccc(CN4CCN(C)CC4)cc32)sc1C(N)=O)c1ccccc1C(F)(F)F [GSK461364] | 0.9925
53 | CCN1CCN(Cc2ccc(Nc3ncc(F)c(-c4cc(F)c5nc(C)n(C(C)C)c5c4)n3)nc2)CC1 [abemaciclib (LY2835219)] | 0.1618
54 | CC1(COc2ccc3c(c2)ncn3-c2ccc3cccc(N4CCC(N)CC4)c3n2)COC1 [Crenolanib (CP-868596)] | 0.3666
55 | CC(C)(C)c1cc(C=C(C#N)C#N)cc(Br)c1O [AG-1024] | −0.3636
56 | O=C(NOCC1CC1)c1ccc(F)c(F)c1Nc1ccc(I)cc1Cl [PD184352 (CI-1040), PD184352, reference compound] | 0.3257
57 | CCCS(=O)(=O)Nc1ccc(F)c(C(=O)c2c[nH]c3ncc(-c4ccc(Cl)cc4)cc23)c1F [Vemurafenib (PLX4032, RG7204), vemurafenib, reference compound] | 0.009154
58 | CC(O)C(=O)O.CC(O)C(=O)O.CN1CCN(c2ccc3nc(-c4c(N)c5c(F)cccc5[nH]c4=O)[nH]c3c2)CC1 [Dovitinib (TKI-258) Dilactic Acid] | −0.3598
59 | CC(C)(C)c1cc(/C=C(\C#N)C(N)=S)cc(C(C)(C)C)c1O [Tyrphostin AG 879] | 0.3391
60 | Cn1cnc2c(F)c(Nc3ccc(Br)cc3F)c(C(=O)NOCCO)cc21 [Binimetinib (MEK162, ARRY-162, ARRY-438)] | 0.5434
61 | Cc1cc(Nc2ncc(Cl)c(Nc3ccccc3S(=O)(=O)C(C)C)n2)c(OC(C)C)cc1C1CCNCC1 [Ceritinib (LDK378)] | 0.2988
62 | S=C(NCc1ccc2c(c1)OCO2)N1CCN(c2ncnc3c2oc2ccccc23)CC1 [Amuvatinib (MP-470)] | −0.2594
63 | CCN1/C(=C/C(C)=O)Sc2ccc(OC)cc21 [TG003] | 0.4163
64 | Cn1c(=O)c(F)c(Nc2ccc(I)cc2F)c2c(=O)n(C[C@@H](O)CO)cnc21 [TAK-733, reference compound] | 0.08618
65 | Cc1cc(C)c(/C=C2\C(=O)Nc3ccccc32)[nH]1 [Semaxanib (SU5416)] | −0.8277
66 | COc1ccc(-c2ccc3c(N4CCOCC4)nc(N4C[C@@H](C)O[C@@H](C)C4)nc3n2)cc1CO [KU-0063794] | −1.551
67 | CC(C)n1nc(-c2cc3cc(O)ccc3[nH]2)c2c(N)ncnc21 [Torkinib (PP242)] | −0.3157
68 | CCS(=O)(=O)Nc1ccc2c(c1)/C(=C(/Nc1ccc(CN3CCCCC3)cc1)c1ccccc1)C(=O)N2 [Hesperadin] | 0.1006
69 | CNC(=O)c1nn(C)c2c1C(C)(C)Cc1cnc(Nc3ccc(N4CCN(C)CC4)cc3)nc1-2 [Milciclib (PHA-848125)] | 0.9986
70 | O=C(Nc1ccc(-c2ccnc(Nc3ccc(N4CCOCC4)cc3)n2)cc1)C1CCCN1 (centres unmarked) [XL019] | −0.1669
71 | C[C@@H]1COC(Nc2ccc3ncnc(Nc4ccc(OCc5nccs5)c(Cl)c4)c3c2)=N1 [Varlitinib] | 0.7999
72 | C[C@]1(O)C[C@@H](c2nc(-c3ccc4ccc(-c5ccccc5)nc4c3)c3c(N)nccn32)C1 [Linsitinib (OSI-906)] | 0.08978
73 | Cn1cc(-c2ccc3nnc(C(F)(F)c4ccc5ncccc5c4)n3n2)cn1 [JNJ-38877605] | 0.02907
74 | CN1CC[C@H](c2c(O)cc(O)c3c(=O)cc(-c4ccccc4Cl)oc23)[C@H](O)C1 [Flavopiridol (Alvocidib)] | 1.05
